# Experimental data from patent US11198695B2, “Fused ring derivative having MGAT-2 inhibitory activity” (Shionogi & Co., Ltd., priority 2017, dated 2021).
# Biological target: recombinant human MGAT2 (Homo sapiens (Human), UniProt Q3SYC2)
# Assay: Measurement of human MGAT2 inhibitory activity
# Assay type: biochemical
# Conditions: read-out: IC50 (concentration exhibiting 50% enzyme inhibition), Table 52
# In short: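 RapidFire ESI-MS read-out of the diolein/diolein-d5 peak ratio gave % inhibition, with no-enzyme and full-enzyme wells as 100% and 0%. Reactions ran 1 h at room temperature at pH 7.4 (phosphate, 2 mmol/L DTT), using Flag-tagged human MGAT2 membranes from Sf9 cells and a substrate solution of 30 μmol/L 2-oleoylglycerol and 10 μmol/L oleoyl-CoA.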
# recombinant human MGAT2, sequence (Q3SYC2 whole entry): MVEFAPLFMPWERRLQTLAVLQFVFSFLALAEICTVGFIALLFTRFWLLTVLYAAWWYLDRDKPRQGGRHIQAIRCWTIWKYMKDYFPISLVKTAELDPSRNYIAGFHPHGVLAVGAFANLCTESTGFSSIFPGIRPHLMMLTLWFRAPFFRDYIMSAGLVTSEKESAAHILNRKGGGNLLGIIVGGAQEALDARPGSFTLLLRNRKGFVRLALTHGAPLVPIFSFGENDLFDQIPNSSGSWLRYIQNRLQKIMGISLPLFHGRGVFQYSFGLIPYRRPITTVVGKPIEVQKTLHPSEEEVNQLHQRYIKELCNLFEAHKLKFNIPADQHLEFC
row,IC50 [nM],SMILES
1,430,O=C1N[C@@]2(CCc3cc(OCC(F)(F)F)ccc32)Cc2nn(CCC3CC3)c(CNC(=O)C3CS(=O)(=O)C3)c21 [Compound I-161]
2,113,COCC(=O)Nc1c2c(nn1CCC1CC1)C[C@]1(CCc3cc(OCCCC(F)(F)F)ccc31)NC2=O [Compound I-29]
3,970,CS(=O)(=O)CC(=O)Nc1nn(CCn2cccn2)c2c1C(=O)N[C@@]1(CCc3cc(OCCCC(F)(F)F)ccc31)C2 [Compound I-66]
4,8.3,O=C1N[C@@]2(CCc3cc(OCCCC(F)(F)F)ccc32)Cc2nn(CCC3CC3)c(C(=O)NS(=O)(=O)C3CC3)c21 [Compound I-72]
5,52,CS(=O)(=O)CC(=O)Nc1c2c(nn1-c1ccncn1)C[C@]1(CCc3cc(OCC(F)(F)F)ccc31)NC2=O [Compound I-188]
6,11,C=C(C)c1ccc(-n2nc3c(c2NC(=O)CS(C)(=O)=O)C(=O)N[C@@]2(CCc4cc(OCC(F)(F)F)ccc42)C3)nc1 [Compound I-233]
7,11.3,CS(=O)(=O)CC(=O)Nc1c2c(nn1CCC1CC1)C[C@]1(CCc3cc(N4CC(F)(F)C4)ccc31)NC2=O [Compound I-204]
8,10,CC1(S(=O)(=O)NC(=O)c2c3c(nn2CCC2CC2)C[C@]2(CCc4cc(OCC(F)(F)F)ccc42)NC3=O)CC1 [Compound I-110]
9,9.8,CS(=O)(=O)CC(=O)Nc1c2c(nn1CCC1CC1)C[C@]1(CCc3cc(N4CC(C(F)(F)F)C4)ccc31)NC2=O [Compound I-234]
10,43,CS(=O)(=O)CC(=O)NCc1c2c(nn1CCC1CC1)C[C@]1(CCc3cc(OCC(F)(F)F)ccc31)NC2=O [Compound I-213]
11,540,O=C(Nc1nn(CCC2CC2)c2c1C(=O)N[C@@]1(CCc3cc(OCCCC(F)(F)F)ccc31)C2)c1ccno1 [Compound I-1]
12,1.7,CS(=O)(=O)CC(=O)Nc1c2c(nn1-c1ccc(C#N)cn1)C[C@@]1(CCc3cc(OCC(F)(F)F)cc(F)c31)NC2=O [Compound I-137]
13,180,O=C(NCc1c2c(nn1CCC1CC1)C[C@]1(CCc3cc(OCC(F)(F)F)ccc31)NC2=O)c1ccon1 [Compound I-151]
14,73,Cc1cc(C(=O)Nc2c3c(nn2CCC2CC2)C[C@]2(CCc4cc(OCC(F)(F)F)ccc42)NC3=O)on1 [Compound I-92]
15,17,CS(=O)(=O)CC(=O)Nc1c2c(nn1CCCCC(F)(F)F)C[C@]1(CCc3cc(OCC(F)(F)F)ccc31)NC2=O [Compound I-255]
16,5.9,CS(=O)(=O)CC(=O)Nc1c2c(nn1-c1ccc(C#N)cn1)C[C@]1(CCc3cc(N4CC(C(F)(F)F)C4)ccc31)NC2=O [Compound I-168]
17,620,Cc1cc(C(=O)Nc2c3c(nn2CCC2CC2)C[C@]2(CCc4cc(OCC(F)(F)F)ccc42)NC3=O)n(C)n1 [Compound I-229]
18,39,CS(=O)(=O)CC(=O)Nc1c2c(nn1CCC1CC1)C[C@]1(CCc3cc(F)cc(F)c31)NC2=O [Compound I-178]
19,90,Cc1cnoc1C(=O)Nc1c2c(nn1CCC1CC1)C[C@]1(CCc3cc(OCC(F)(F)F)ccc31)NC2=O [Compound I-226]

# Same assay, conditions: read-out: IC50 (concentration exhibiting 50% enzyme inhibition), Table 53
row,IC50 [nM],SMILES
1,45.7,Cc1cc(-n2nc3c(c2C(=O)NCCS(N)(=O)=O)C(=O)N[C@@]2(CCc4cc(OCC(F)(F)F)ccc42)C3)no1 [II-254]
2,1.99,CS(=O)(=O)CC(=O)Nc1c2c(nn1CCC1CC1)C[C@@]1(CCc3cc(-c4cnn(C(F)(F)F)c4)ccc31)NC2=O [II-83]
3,22,CS(=O)(=O)CC(=O)Nc1c2c(nn1CCC1CC1)C[C@@]1(CCc3cc(N4CC(C(F)F)C4)ccc31)NC2=O [II-40]
4,59.7,N#Cc1ccc(-n2nc3c(c2C(=O)NCCF)C(=O)N[C@@]2(CCc4cc(OCC(F)(F)F)ccc42)C3)nc1 [II-178]
5,26.3,CS(=O)(=O)NC(=O)c1c2c(nn1-c1ccc(C#N)cn1)C[C@]1(CCc3cc(OCC(F)(F)F)ccc31)NC2=O [II-214]
6,32,CS(=O)(=O)CC(=O)Nc1c2c(nn1-c1ccc(C#N)cn1)C1(Cc3cc(F)c(F)cc3C1)NC2=O [II-4]
7,5.92,Cc1cc(-n2nc3c(c2NC(=O)CS(C)(=O)=O)C(=O)N[C@@]2(CCc4cc(C(F)(F)F)ccc42)C3)nn1C [II-278]
8,3.73,N#Cc1ccc(-n2nc3c(c2C(=O)NCCS(N)(=O)=O)C(=O)N[C@]2(CCc4cc(OCC(F)(F)F)ccc42)C3)nc1 [II-246]
9,3.69,CS(=O)(=O)CC(=O)Nc1c2c(nn1-c1ccc(C#N)cn1)C[C@]1(CCc3cc(Cl)ccc31)NC2=O [II-75]
10,4.67,Cc1ccc(-n2nc3c(c2NC(=O)CS(C)(=O)=O)C(=O)N[C@@]2(CCc4cc(OCC(C)(C)F)ccc42)C3)nc1 [II-161]
11,13.4,Cc1ccc(-n2nc3c(c2C(=O)NCC2(CO)CC2)C(=O)N[C@@]2(CCOc4cc(OCC(F)(F)F)ccc42)C3)nc1 [II-249]
12,2.68,CS(=O)(=O)CC(=O)Nc1c2c(nn1-c1ccc(C3CC3)nn1)C[C@]1(CCc3cc(OCC(F)(F)F)ccc31)NC2=O [II-105]
13,77,N#Cc1ccc(-n2nc3c(c2C(=O)NS(=O)(=O)c2ccccc2)C(=O)N[C@@]2(CCc4cc(OCC(F)(F)F)ccc42)C3)nc1 [II-215]
14,440,CC(=O)Nc1c2c(nn1-c1ccc(C#N)cn1)C[C@@]1(CCc3cc(OCC(F)(F)F)ccc31)NC2=O [II-51]
15,204,CC(C)(CNC(=O)c1c2c(nn1-c1ccc(C#N)cn1)C[C@]1(CCc3cc(OCC(F)(F)F)ccc31)NC2=O)C(N)=O [II-115]
16,3.97,CS(=O)(=O)CC(=O)Nc1c2c(nn1CCCOC(F)(F)F)C[C@@]1(NC2=O)c2ccc(OCC(F)(F)F)cc2CC1(F)F [II-97]
17,8.06,Cc1ccc(-n2nc3c(c2NC(=O)CS(C)(=O)=O)C(=O)N[C@@]2(CCc4cc(OCC(F)F)ccc42)C3)nc1 [II-158]
18,67.3,Cc1ccc(-n2nc3c(c2C(=O)NCC2(C(F)F)CC2)C(=O)N[C@@]2(CCOc4cc(OCC(F)(F)F)ccc42)C3)nc1 [II-232]
19,1.05,CS(=O)(=O)CC(=O)Nc1c2c(nn1-c1ccc(C#N)cn1)C[C@]1(CCc3cc(OCC(F)(F)F)c(F)cc31)NC2=O [II-144]
20,4.79,CS(=O)(=O)CC(=O)Nc1c2c(nn1-c1ccc(Cl)c(F)c1)C[C@]1(CCc3cc(OCC(F)(F)F)ccc31)NC2=O [II-137]
21,46.6,O=C1N[C@@]2(CCc3cc(OCC(F)(F)F)ccc32)Cc2nn(CCC3CC3)c(NC(=O)[C@H]3CCCS3(=O)=O)c21 [II-81]
22,3.31,CC(F)(F)COc1ccc2c(c1)CC[C@]21Cc2nn(-c3ccc(C(F)F)cc3)c(NC(=O)CS(C)(=O)=O)c2C(=O)N1 [II-288]
23,4.92,Cc1ccc(-n2nc3c(c2NC(=O)CS(C)(=O)=O)C(=O)N[C@@]2(CCOc4cc(Cl)ccc42)C3)nc1 [II-147]
24,1.12,CS(=O)(=O)CC(=O)Nc1c2c(nn1CCCOC(F)(F)F)C[C@@]1(CCOc3cc(C4CC4)ccc31)NC2=O [II-279]
25,35,CS(=O)(=O)CC(=O)Nc1c2c(nn1CC1CC(F)(F)C1)C[C@]1(CCc3cc(OCC(F)(F)F)ccc31)NC2=O [II-12]
26,4.42,Cc1cc(-n2nc3c(c2NC(=O)CS(C)(=O)=O)C(=O)N[C@@]2(CCc4cc(C5CC5)ccc42)C3)nn1C [II-303]
27,1.25,CS(=O)(=O)CC(=O)Nc1c2c(nn1CCC1CC1)C[C@@]1(CCc3cc(OCCCC(F)(F)F)ccc31)NC2=O [II-101]
28,44,CS(=O)(=O)CC(=O)Nc1c2c(nn1-c1ccc(C#N)cn1)C[C@]1(CCc3cc(N4CC(F)C4)ccc31)NC2=O [II-55]
